ChEMBL document CHEMBL3351341, “Discovery of a potent and selective EGFR inhibitor (AZD9291) of both sensitizing and T790M resistance mutations that spares the wild type form of the receptor” (J Med Chem, 2014)
pIC50: −log10 of the molar value. Values after ≈ are worked out from the molar mass of the structure shown.

How the values were obtained:
A-431 [1] = assay: Antitumor activity against human A431 cells xenografted in SCID mouse assessed as tumor growth inhibition at 10 mg/kg/day, po qd for 7 days relative to control; format: functional
NCI-H1975 [2] = assay: Antitumor activity against human NCI-H1975 cells harboring EGFR L858R/[…] double mutant xenografted in SCID mouse assessed as tumor growth inhibition at […], po qd for 7 days relative to control; format: functional
NCI-H1975 [3] = assay: Antitumor activity against human NCI-H1975 cells harboring EGFR L858R/[…] double mutant xenografted in SCID mouse assessed as tumor growth inhibition at 10 mg/kg/day, po qd for 7 days relative to control; format: functional
A-431 [4] = assay: Antitumor activity against human A431 cells xenografted in SCID mouse assessed as tumor growth inhibition at […], po qd for 7 days relative to control; format: functional
NCI-H1975 [5] = assay: Antitumor activity against human NCI-H1975 cells harboring EGFR L858R/[…] double mutant xenografted in SCID mouse assessed as tumor growth inhibition at 20 mg/kg/day, po qd for 7 days relative to control; format: functional; conditions: NCI-H1975, 168 h, read-out: TGI
NCI-H1975 [6] = assay: Antitumor activity against human NCI-H1975 cells harboring EGFR L858R/[…] double mutant xenografted in SCID mouse assessed as tumor growth inhibition at 5 mg/kg/day, po qd for 7 days relative to control; format: functional
A-431 [7] = assay: Antitumor activity against human A431 cells xenografted in SCID mouse assessed as tumor growth inhibition at 5 mg/kg/day, po qd for 7 days relative to control; format: functional
A-431 [8] = assay: Antitumor activity against human A431 cells xenografted in SCID mouse assessed as tumor growth inhibition at 20 mg/kg/day, po qd for 7 days relative to control; format: functional; conditions: A-431, 168 h, read-out: TGI
[9] = target: Insulin-like growth factor 1 receptor (Homo sapiens, UniProt P08069); assay: Inhibition of IGF1R (unknown origin)
Sequence of Insulin-like growth factor 1 receptor (P08069 31-736 limits assumed): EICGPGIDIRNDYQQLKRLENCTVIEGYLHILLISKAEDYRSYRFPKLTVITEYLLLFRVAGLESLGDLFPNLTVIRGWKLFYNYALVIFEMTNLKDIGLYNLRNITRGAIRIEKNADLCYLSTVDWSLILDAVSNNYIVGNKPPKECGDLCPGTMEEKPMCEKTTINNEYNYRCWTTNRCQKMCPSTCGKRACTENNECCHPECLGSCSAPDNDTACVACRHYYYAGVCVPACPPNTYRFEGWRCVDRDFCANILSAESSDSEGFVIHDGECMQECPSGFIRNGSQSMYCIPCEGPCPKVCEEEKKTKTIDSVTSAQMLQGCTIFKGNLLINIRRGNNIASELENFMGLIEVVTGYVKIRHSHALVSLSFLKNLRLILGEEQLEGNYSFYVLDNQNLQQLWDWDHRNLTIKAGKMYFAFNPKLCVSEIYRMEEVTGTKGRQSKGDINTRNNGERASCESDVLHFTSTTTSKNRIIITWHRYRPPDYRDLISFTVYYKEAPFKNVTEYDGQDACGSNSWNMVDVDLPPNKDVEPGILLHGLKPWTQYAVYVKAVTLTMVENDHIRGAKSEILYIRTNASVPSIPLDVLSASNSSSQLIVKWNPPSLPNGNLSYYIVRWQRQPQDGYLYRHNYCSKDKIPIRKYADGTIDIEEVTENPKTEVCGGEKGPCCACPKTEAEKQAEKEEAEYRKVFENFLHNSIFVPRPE
Sequence of Insulin-like growth factor 1 receptor (P08069 741-1367 limits assumed): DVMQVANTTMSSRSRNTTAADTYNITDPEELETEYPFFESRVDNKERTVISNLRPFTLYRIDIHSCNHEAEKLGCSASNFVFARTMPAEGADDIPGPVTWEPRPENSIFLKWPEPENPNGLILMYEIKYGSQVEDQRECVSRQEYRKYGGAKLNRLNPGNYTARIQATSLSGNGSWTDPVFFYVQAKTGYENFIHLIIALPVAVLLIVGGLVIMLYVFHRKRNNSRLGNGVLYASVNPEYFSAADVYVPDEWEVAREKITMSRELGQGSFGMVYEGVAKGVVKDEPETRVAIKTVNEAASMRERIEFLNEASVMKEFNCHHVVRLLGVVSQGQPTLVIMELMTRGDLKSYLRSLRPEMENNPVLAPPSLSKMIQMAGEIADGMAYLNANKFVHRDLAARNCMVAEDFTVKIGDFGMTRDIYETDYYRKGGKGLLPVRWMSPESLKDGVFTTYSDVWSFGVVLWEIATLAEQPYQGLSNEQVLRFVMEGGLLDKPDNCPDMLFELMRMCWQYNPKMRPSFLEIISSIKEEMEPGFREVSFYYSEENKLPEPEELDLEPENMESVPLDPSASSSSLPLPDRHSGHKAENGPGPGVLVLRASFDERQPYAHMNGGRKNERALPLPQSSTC

Plasma [10] = assay: Drug metabolism in rat plasma treated with N-[2-(2-Dimethylaminoethylmethylamino)-4-methoxy-5-[[4-(1-methylindol-3-yl)pyrimidin-2-yl]amino]phenyl]prop-2-enamide; format: ADME, cell-free
[11] = (§1) Unbound fraction in human plasma; format: ADME, cell-free
[12] = Cytotoxicity against human PC9 cells harboring EGFR exon 19 deletion activating mutant assessed as growth inhibition after 72 hrs by SYTOX green nucleic acid staining-based fluorescence assay; format: functional, PC-9
[13] = Unbound fraction in nude mouse plasma; format: ADME, cell-free
[14] = Intrinsic clearance in human hepatocytes measured per 10^6 cells; format: ADME, cell-based, Hepatocyte; conditions: read-out: CLH
Plasma [15] = assay: Drug metabolism in mouse plasma treated with N-[2-(2-Dimethylaminoethylmethylamino)-4-methoxy-5-[[4-(1-methylindol-3-yl)pyrimidin-2-yl]amino]phenyl]prop-2-enamide; format: ADME, cell-free
[16] = Intrinsic clearance in rat hepatocytes measured per 10^6 cells; format: ADME, cell-based, Hepatocyte; conditions: read-out: CLH
[17] = Fraction unbound in Han Wistar rat plasma; format: ADME, cell-free
[18] = Lipophilicity, log D of the compound at pH 7.4; format: physicochemical; conditions: buffer
[19] = Cytotoxicity against human Calu3 cells assessed as growth inhibition after 72 hrs by SYTOX green nucleic acid staining-based fluorescence assay; format: functional, Calu-3
NCI-H1975 [20] = assay: Cytotoxicity against human NCI-H1975 cells harboring EGFR L858R/[…] double mutant assessed as growth inhibition after 72 hrs by SYTOX green nucleic acid staining-based fluorescence assay; format: functional
[21] = target: Voltage-gated inwardly rectifying potassium channel KCNH2 (Homo sapiens, UniProt Q12809); assay: Inhibition of human ERG
Sequence of Voltage-gated inwardly rectifying potassium channel KCNH2 (Q12809 whole entry): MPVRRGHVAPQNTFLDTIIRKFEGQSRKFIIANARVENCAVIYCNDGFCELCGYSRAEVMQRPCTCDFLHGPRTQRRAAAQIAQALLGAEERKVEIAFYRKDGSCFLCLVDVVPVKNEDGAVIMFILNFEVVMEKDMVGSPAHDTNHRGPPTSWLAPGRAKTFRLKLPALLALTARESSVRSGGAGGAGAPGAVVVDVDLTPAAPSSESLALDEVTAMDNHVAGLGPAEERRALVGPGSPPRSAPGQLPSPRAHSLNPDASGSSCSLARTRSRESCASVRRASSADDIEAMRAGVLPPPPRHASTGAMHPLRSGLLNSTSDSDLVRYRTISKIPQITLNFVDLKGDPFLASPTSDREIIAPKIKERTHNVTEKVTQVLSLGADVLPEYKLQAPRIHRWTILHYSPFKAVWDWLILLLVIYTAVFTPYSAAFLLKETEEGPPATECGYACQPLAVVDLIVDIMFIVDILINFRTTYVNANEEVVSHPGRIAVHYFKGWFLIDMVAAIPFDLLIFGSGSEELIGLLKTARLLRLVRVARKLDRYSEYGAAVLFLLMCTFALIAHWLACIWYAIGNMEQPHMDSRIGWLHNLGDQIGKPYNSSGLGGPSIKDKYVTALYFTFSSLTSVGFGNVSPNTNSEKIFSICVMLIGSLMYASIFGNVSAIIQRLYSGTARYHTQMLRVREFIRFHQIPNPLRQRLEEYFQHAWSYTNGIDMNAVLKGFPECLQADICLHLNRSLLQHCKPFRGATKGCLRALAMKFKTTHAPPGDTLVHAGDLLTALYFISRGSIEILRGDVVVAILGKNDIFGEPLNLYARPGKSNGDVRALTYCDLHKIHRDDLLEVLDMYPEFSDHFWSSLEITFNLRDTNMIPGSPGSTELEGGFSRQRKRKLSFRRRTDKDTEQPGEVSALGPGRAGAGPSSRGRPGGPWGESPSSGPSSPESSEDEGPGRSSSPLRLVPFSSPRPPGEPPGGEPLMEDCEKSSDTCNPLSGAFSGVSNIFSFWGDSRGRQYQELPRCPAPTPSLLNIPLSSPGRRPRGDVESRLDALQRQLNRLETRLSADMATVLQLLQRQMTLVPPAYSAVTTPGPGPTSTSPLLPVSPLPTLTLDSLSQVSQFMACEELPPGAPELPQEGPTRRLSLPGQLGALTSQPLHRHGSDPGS

[22] = Thermodynamic solubility of the compound at pH 7.4; format: physicochemical; conditions: buffer, read-out: Therm_solubility
[23] = Oral bioavailability in Han Wistar rat at 5 mg/kg; format: ADME, organism-based; conditions: in vivo
Plasma [24] = assay: Drug metabolism in rat plasma assessed as dealkylation of compound; format: ADME, cell-free
Plasma [25] = assay: as §1; format: ADME, cell-free
Plasma [26] = assay: Drug metabolism in mouse plasma assessed as loss of indole N-methyl group; format: ADME, cell-free
Plasma [27] = assay: Drug metabolism in mouse plasma assessed as dealkylation of compound; format: ADME, cell-free
Rattus norvegicus [28] = assay: Clearance in iv dosed Han Wistar rat; format: ADME, organism-based; conditions: in vivo
[29] = Cmax in mouse at 10 mg/kg, po; format: ADME, organism-based; design: dose 10 mg/kg, route oral; conditions: in vivo
[30] = Antitumor activity against human PC9 cells harboring EGFR exon 19 deletion activating mutant xenografted in SCID mouse assessed as tumor growth inhibition at 10 mg/kg/day, po qd for 7 days relative to control; format: functional, PC-9
Rattus norvegicus [31] = assay: Toxicity in rat assessed as hyperglycemia at 200 mg/kg, po as single dose measured over 24 hrs; format: organism-based; design: dose 200 mg/kg, route oral; conditions: in vivo
[32] = Half life of the compound by GSH reduction assay; format: physicochemical; conditions: glutathione (GSH)
Cavia porcellus = assay: Cardiotoxicity in anesthetized guinea pig assessed as QT prolongation at fCmax concentration; format: toxicity, organism-based; conditions: in vivo
Rattus norvegicus [33] = assay: Toxicity in rat at 200 mg/kg, po as single dose measured over 24 hrs; format: organism-based; design: dose 200 mg/kg, route oral; conditions: in vivo
Plasma [34] = assay: Drug metabolism in rat plasma assessed as loss of indole N-methyl group; format: ADME, cell-free
Insulin receptor = Insulin receptor (Homo sapiens, UniProt P06213); assay: Inhibition of INSR (unknown origin)
Sequence of Insulin receptor (P06213 28-758 limits assumed): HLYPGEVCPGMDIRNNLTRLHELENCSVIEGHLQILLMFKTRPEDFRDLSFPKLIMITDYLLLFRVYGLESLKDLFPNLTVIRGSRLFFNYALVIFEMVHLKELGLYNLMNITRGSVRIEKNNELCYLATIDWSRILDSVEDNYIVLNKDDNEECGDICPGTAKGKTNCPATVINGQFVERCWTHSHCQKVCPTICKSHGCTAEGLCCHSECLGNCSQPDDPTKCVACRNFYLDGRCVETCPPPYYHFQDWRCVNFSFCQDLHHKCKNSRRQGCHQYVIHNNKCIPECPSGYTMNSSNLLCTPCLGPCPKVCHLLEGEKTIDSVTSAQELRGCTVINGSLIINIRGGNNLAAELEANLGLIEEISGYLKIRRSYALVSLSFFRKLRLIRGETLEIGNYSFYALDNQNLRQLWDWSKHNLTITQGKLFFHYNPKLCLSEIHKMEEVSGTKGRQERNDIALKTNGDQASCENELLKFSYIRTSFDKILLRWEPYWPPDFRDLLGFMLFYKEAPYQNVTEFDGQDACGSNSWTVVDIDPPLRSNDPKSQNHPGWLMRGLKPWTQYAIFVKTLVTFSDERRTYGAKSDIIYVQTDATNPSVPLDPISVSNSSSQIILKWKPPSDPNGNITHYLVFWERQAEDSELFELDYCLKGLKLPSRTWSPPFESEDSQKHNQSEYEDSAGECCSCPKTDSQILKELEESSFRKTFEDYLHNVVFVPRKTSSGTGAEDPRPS
Sequence of Insulin receptor (P06213 763-1382 limits assumed): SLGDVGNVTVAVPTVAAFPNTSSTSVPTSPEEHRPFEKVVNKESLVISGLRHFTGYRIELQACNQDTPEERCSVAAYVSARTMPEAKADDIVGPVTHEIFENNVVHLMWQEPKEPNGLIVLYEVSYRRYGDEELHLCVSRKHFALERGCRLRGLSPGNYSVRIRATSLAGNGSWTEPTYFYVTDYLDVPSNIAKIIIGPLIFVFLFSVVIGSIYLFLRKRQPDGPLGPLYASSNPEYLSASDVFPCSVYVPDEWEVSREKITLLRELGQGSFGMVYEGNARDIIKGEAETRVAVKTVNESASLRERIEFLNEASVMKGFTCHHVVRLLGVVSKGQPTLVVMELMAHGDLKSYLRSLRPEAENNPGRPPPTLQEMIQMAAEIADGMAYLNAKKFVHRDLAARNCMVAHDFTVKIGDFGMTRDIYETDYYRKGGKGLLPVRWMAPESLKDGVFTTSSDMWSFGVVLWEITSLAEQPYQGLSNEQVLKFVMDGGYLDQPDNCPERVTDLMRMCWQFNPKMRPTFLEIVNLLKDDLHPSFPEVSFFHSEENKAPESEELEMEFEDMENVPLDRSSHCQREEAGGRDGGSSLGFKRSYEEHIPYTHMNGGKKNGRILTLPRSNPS

[35] = Mus musculus, A-431, 168 h, read-out: TGI
[36] = Mus musculus, NCI-H1975, 168 h, read-out: TGI

`CN(C)C/C=C/C(=O)Nc1cc2c(Nc3ccc(F)c(Cl)c3)ncnc2cc1O[C@H]1CCOC1` [AFATINIB] showed an inhibition in vivo at 10 mg/kg/day (A-431 [1]; [35]) of 131%, an inhibition in vivo at […] (NCI-H1975 [2]; NCI-H1975, 168 h, read-out: TGI) of 16% and an inhibition in vivo at 10 mg/kg/day (NCI-H1975 [3]; [36]) of 25%. It also gave an inhibition in vivo at […] (A-431 [4]; A-431, 168 h, read-out: TGI) of 84%, an inhibition in vivo at 20 mg/kg/day (NCI-H1975 [5]) of 74% and an inhibition in vivo at 5 mg/kg/day (NCI-H1975 [6]; [36]) of 23%. The inhibition in vivo at 5 mg/kg/day (A-431 [7]; [35]) was 84% and the inhibition in vivo at 20 mg/kg/day (A-431 [8]) was 158%.

In the case of `C=CC(=O)Nc1cc(Nc2nccc(-c3cn(C)c4ccccc34)n2)c(OC)cc1N(C)CCNC`, the pIC50 [9] was 5.80, the Drug metabolism (Plasma [10]) was “metabolite_detected” and the fraction unbound [11] was 0.039. It also gave a GI50 ([12]; Homo sapiens, PC-9, 72 h) of 15 nM, a fraction unbound [13] of 0.0105 and a hepatocyte CLint [14] of less than 3 µL/min/1e6 cells. The Drug metabolism (Plasma [15]) was “metabolite_detected”, the hepatocyte CLint [16] was 50 µL/min/1e6 cells and the fraction unbound [17] was 0.023. For the same compound, the logD [18] was 2.3, the GI50 ([19]; Homo sapiens, Calu-3, 72 h) was 537 nM and the GI50 (NCI-H1975 [20]; Homo sapiens, NCI-H1975, 72 h) was 19 nM. For the same compound, the pIC50 [21] was less than 4.48 and the solubility thermodynamic [22] was 14 µM (≈ 6.8 µg/mL).

With `C=CC(=O)Nc1cc(Nc2nccc(-c3cn(C)c4ccccc34)n2)c(OC)cc1N(C)CCN(C)C` [OSIMERTINIB] the TGI (A-431 [1]) was 102%, the pIC50 [9] was 5.54 and the TGI (NCI-H1975 [2]) was 120%. The bioavailability [23] was 45%, the Drug metabolism (Plasma [24]) was “metabolite_detected” and the Fu (Plasma [25]) was 2.9%. The Drug metabolism (Plasma [26]) was “metabolite_detected”, the GI50 [12] was 23 nM and the fraction unbound [13] was 0.034. The Drug metabolism (Plasma [27]) was “metabolite_detected”, the clearance (Rattus norvegicus [28]) was 45 mL/min/kg and the TGI (NCI-H1975 [3]) was 148%. It also gave a TGI (A-431 [4]) of 65%, a hepatocyte CLint [14] of 3.4 µL/min/1e6 cells and a TGI (NCI-H1975 [6]) of 134%. The TGI (A-431 [7]) was 79%, the Cmax [29] was 380 nM and the TGI [30] was 267%. For the same compound, the hepatocyte CLint [16] was 27 µL/min/1e6 cells, the fraction unbound [17] was 0.032 and the logD [18] was 3.4. For the same compound, the GI50 [19] was 264 nM, the Activity (Rattus norvegicus [31]) was “Non-toxic” and the GI50 (NCI-H1975 [20]) was […]. The half-life [32] was 2.02 h, the Activity (Cavia porcellus) was “Non-toxic” and the Activity (Rattus norvegicus [33]) was “Non-toxic”. The solubility thermodynamic [22] was 7 µM (≈ 3.5 µg/mL), the Drug metabolism (Plasma [34]) was “metabolite_detected” and the pIC50 (Insulin receptor) was 6.04.
